Source: patent US20070203079A1, “Methods of using small molecule compounds for neuroprotection” (priority 2005, published 2007)
Counter-ions that a name gives are not always drawn. Marks after values point to notes of the source that are not given here.

What was measured:
[1] = system: transgenic worms containing the transgene Pdat-1::GFP without any torsinA expression; test: 6-OHDA dopaminergic neurodegeneration in worms without torsinA; assay type: in vivo, C. elegans; conditions: no torsinA expression
[2] = system: transgenic worm line Pdat-1::CAT-2; test: Neurodegeneration by overexpression of cat-2 (tyrosine hydroxylase); assay type: in vivo, C. elegans; conditions: for neuroprotective effect against CAT-2-induced neurodegeneration: Pdat-1::CAT-2
Source text: Overexpression of cat-2, the worm homologue for tyrosine hydroxylase, results in increased intraneuronal dopamine production and a characteristic loss of dopaminergic neurons in 75% of transgenic worms as compared to wild type (Cao et al., J Neurosci, 25(1):3801-3812). Co-expression of worm or human torsin proteins reduces the loss of dopaminergic neurons to a slight degree although neuronal degeneration is still present. The purpose of these experiments was to determine the effect of small molecule compounds in the Prestwick library in another different C. elegans model of neurodegeneration.
Worms were cultured using the same methods described above. A transgenic worm line expressing Pdat-1::CAT-2 expresses a phenotype that results in visible neurodegeneration at all developmental stages in an integrated line, in which only approximately 55% of 7 day old animals maintained all four CEP neurons. […] Compound 166 is an example of one such compound.
To further examine the neuroprotective effect of meclofenamic acid and lidocaine, we used a transgenic line (Pdat-1::CAT-2) we previously described (Cao et al., J Neurosci, 2005, 25(1): 3801-3812). Overexpression of cat-2, the C. elegans homolog of the tyrosine hydroxylase (“TH”) gene, causes a high level of DA production and as a result, DA neuron degeneration is observed (Cao et al., J Neurosci, 2005, 25(1): 3801-3812). […] We also tested whether meclofenamic acid was able to suppress CAT-2-induced neurodegeneration. […] Therefore, meclofenamic acid can protect DA neurons from degeneration produced by overexpression of the dopamine precursor, tyrosine hydroxylase.

GFP::DAT-1 = test: Pdat-1::GFP::DAT-1 expression within DA neurons; assay type: in vivo, C. elegans; conditions: for Worms with no GFP / Neurons with cell body GFP only / Neurons with cell body and dendritic/axonal GFP / Mean pixel intensity of cell bodies ± SEM (fluorescence intensity): Pdat-1::GFP::DAT-1; for Worms with no GFP: water control 0%; for Neurons with cell body GFP only: water control 30%; for Neurons with cell body and dendritic/axonal GFP: water control 70%; for Mean pixel intensity of cell bodies ± SEM (fluorescence intensity): water control 1970 ± 80, compounds at 1.85, 1.49, 1.86 mM; for effect on GFP::DAT-1 level: result in words
[3] = system: worms containing Punc-54::Q82::GFP+Punc-54::torsinA+Punc54::torsinA (ΔE); test: Screen for reduction of polyglutamine protein aggregates in worms with wt and mutant torsinA; assay type: in vivo, C. elegans; conditions: differentiated by Q82::GFP lines without torsinA, with wt torsinA or with mutant torsinA
Procedure: (§1) C elegans nematodes were grown at 20° C. on NGM plates as described by Brenner (Brenner, Genetics, 1974, 77: 71-94). Several transgenic C. elegans lines were used for primary screens of the Prestwick small molecule library. A transgenic worm line expressing Punc-54::Q82-GFP; with both wild type (“wt”) (Punc=54: :torsinA) or mutant (Punc-54::torsinA(ΔE)). Torsin-A expresses a phenotype that results in visible protein aggregation under fluorescent microscope. Transgenic worms were plated on drug plates and progeny were studied for a return to soluble protein.
(§2) Drugs were administered to C. elegans according to a standard procedure (Rand and Johnson, Methods Cell Biol, 1995, 48: 187-204), by mixing the solubilized drug with the agar medium on which the worms are grown. This mode of administration allows the continuous exposure of worms to the drug.
Each drug was first dissolved in an appropriate solvent, followed by adding the drug solution into pre-autoclaved media, with the volume of drug solution already taken into account. […] Each plate was seeded with 100 μl concentrated E. coli OP50 bacteria.
(§3) The screening assays used to identify the compounds use protein aggregation readouts to determine the specificities of molecular action. […]
(§4) The methods for the aggregate analysis assay are described in Caldwell et al. (Hum Mol Genetics, 2003, 12(3): 307-319). […] MetaMorph Software (Universal Imaging Inc.) was used for pseudocoloration of images, image overlay, and aggregate size quantitation. For each worm line analyzed, average aggregate size was determined by capturing images of all aggregates in the posterior region of 30 L3-staged animals (for Q82::GFP aggregates) or all aggregates in 30 adult animals/day (for Q19::GFP analyses) at 1000× magnification. […]
(§5) To see the effect of the candidate compounds on suppressing protein misfolding and aggregation, five gravid adult worms were placed onto each drug plate and grown at 20° C. for approximately 3 days. Thirty Fl worms at L3 stage and young adult stage were counted for aggregate number.

[4] = system: worms expressing Punc-54::Q82::GFP+Punc-54::torsinA with wt torsinA only; test: Protein aggregate assay in worms with wt torsinA only; assay type: in vivo, C. elegans
Procedure: as §1, §2
Each drug was first dissolved in an appropriate solvent, followed by adding the drug solution into pre-autoclaved media, with the volume of drug solution already taken into account. […]
as §3, §4, §5

[5] = system: protein misfolding and aggregation in transgenic worms; test: Preventative assay of protein aggregation (drug from hatching to L2 stage); assay type: in vivo, C. elegans; conditions: exposure from hatching to L2 stage; scored at L3 and young adult
Procedure: To see the preventative effects of the candidate drug compounds on protein misfolding and aggregation, five gravid adult worms were placed onto each drug plate and grown at 20° C. for approximately 3 days. 35-40 Fl worms at L2 stage were picked and transferred to a control plate with the same concentration of control solvent compared to the drug plate. Thirty worms at L3 stage were counted for aggregate number 8 hours later. Thirty young adults were analyzed 32 hours later.
To calculate the scaled effectiveness of special regimen of drugs on worms based on standardized decrease in protein aggregates. The following formula was used: (A−B)/(A−C)×100%, where
A=number of aggregates for worms growing on solvent control plates
B=number of aggregates for worms grown on the specific drug plate for the entire life of the worms
C=number of aggregates for worms that received pre-L2 exposure and were then removed to solvent control plates
If the regimen has no effect, the value would equal 0%. Conversely, if the regimen was as effective as raising the worms on the drug for their entire life, the value would equal 100%.

[6] = system: Pdat-1::GFP+Pdat-1::α-synuclein+Pdat-1::torsinA worms; test: α-synuclein toxicity assay, wt torsinA; assay type: in vivo, C. elegans
Source text: (§6) We have previously shown that torsinA can prevent dopamine (“DA”) neuron degeneration resulting from overexpression of α-synuclein in the DA neurons of C. elegans, while torsinA (“ΔE”) has a reduced neuroprotection (Cao et al., J Neurosci, 2005, 25(1): 3801-3812). Specifically, only 26.1±5.3% of the worms expressing Pdat-1::GFP+Pdat-1::α-synuclein maintained all 4 wildtype CEP DA neurons as 4 day adults while the percentages of the worms expressing Pdat-1::GFP+Pdat-1::α-synuclein+Pdat-1::torsinA and Pdat-1::GFP+Pdat-1::α-synuclein+Pdat-1:: torsinA (ΔE) are 57.3±1.6% and 42.2±7.3%, respectively (Cao et al., J Neurosci, 2005, 25(1): 3801-3812) (FIG. 8).
(§7) All molecules are coded by Prestwick Library number. TorsinA-dependent compounds identified from the aggregation assay have torsinA-specific effects and, therefore, are likely to function in the same manner in the α-synuclein toxicity assay. All three α-synuclein transgenic lines were exposed to the five torsinA-dependent compounds to determine their torsinA-specificity (FIG. 9). As expected, none of these compounds had any effect in Pdat-1::GFP+Pdat-1::α-synuclein when torsinA expression is absent.

[7] = system: Pdat-1::GFP+Pdat-1::α-synuclein+Pdat-1:: torsinA (ΔE) worms; test: α-synuclein toxicity assay, mutant torsinA; assay type: in vivo, C. elegans
Source text: as §6, §7

[8] = 1 gram/kg dose, fasting normal individual; cited from earlier work
[9] = system: worms expressing Punc-54::Q82::GFP+Punc-54::torsinA (ΔE) with a mutant torsinA only; test: Protein aggregate assay in worms with mutant torsinA only; assay type: in vivo, C. elegans
Procedure: C elegans nematodes were grown at 20° C. on NGM plates as described by Brenner (Brenner, Genetics, 1974, 77: 71-94). Several transgenic C. elegans lines were used for primary screens of the Prestwick small molecule library. A transgenic worm line expressing Punc-54::Q82-GFP; with both wild type (“wt”) (Punc=54: :torsinA) or mutant (Punc-54::torsinA(ΔE)). Torsin-A expresses a phenotype that results in visible protein aggregation under fluorescent microscope. Transgenic worms were plated on drug plates and progeny were studied for a return to soluble protein. […]
as §3, §4

[10] = listed as Lidocaine hydrochloride, HCl
[11] = listed as Meclofenamic acid sodium salt, sodium salt
[12] = listed as meclofenamic acid, sodium salt

Row | SMILES | reduction of 6-OHDA-mediated neurodegeneration [1] | neuroprotective effect against CAT-2-induced neurodegeneration [2] | Worms with no GFP (GFP::DAT-1) | Neurons with cell body GFP only (GFP::DAT-1) | effect on GFP::DAT-1 level (GFP::DAT-1) | preventative effect on protein aggregation [5] | enhanced wild type DA neuron survival [6] | enhanced DA neuron survival [7] | further results
1 | CCN(CC)CC(=O)Nc1c(C)cccc1C [Compound 50, lidocaine HCl] | reduced the 6-OHDA-mediated neurodegeneration | −7.9% | 0% | 70%^e | can down-regulate the level of DAT-1 protein directly |  |  |  | Neurons with cell body and dendritic/axonal GFP (GFP::DAT-1; HCl): 30%; Neurons with cell body and dendritic/axonal GFP (GFP::DAT-1; [10]): 30%^d; Mean pixel intensity of cell bodies ± SEM (fluorescence intensity) (GFP::DAT-1; HCl): 1612 A.U.; Mean pixel intensity of cell bodies ± SEM (fluorescence intensity) (GFP::DAT-1; [10]): 1612 ± 78 A.U.
2 | CCn1cc(C(=O)O)c(=O)c2ccc(C)nc21 [Compound 187, Nalidixic Acid] |  |  |  |  |  | seem to be beneficial | 28.9±4.9% | no significant neuroprotection | Specificity in worm assay [3]: wt torsinA; reduction of protein aggregation [4]: reduced protein aggregation; half-life [8]: about 90 minutes
3 | Cc1ccc(Cl)c(Nc2ccccc2C(=O)O)c1Cl [Compound 206, Meclofenamic acid sodium salt] | reduced the 6-OHDA-mediated neurodegeneration | 19±1.1% | 4.2% | 51.1%^e | can down-regulate the level of DAT-1 protein directly | seem to be beneficial | failed to show any significant neuroprotection | 25±1.2% | reduction of aggregation [9]: reduced aggregation; neuroprotective action on dopaminergic neurons overexpressing cat-2 ([2]; Pdat-1::CAT-2, result in words): demonstrated a reduction in the standardized decrease in dopaminergic neurodegeneration; Neurons with cell body and dendritic/axonal GFP (GFP::DAT-1; [11]): 44.7%^d; Neurons with cell body and dendritic/axonal GFP (GFP::DAT-1; [12]): 44.7%; Mean pixel intensity of cell bodies ± SEM (fluorescence intensity) (GFP::DAT-1; [11]): 1740 ± 64 A.U.; Mean pixel intensity of cell bodies ± SEM (fluorescence intensity) (GFP::DAT-1; [12]): 1740 A.U.
